# Experimental data: US8022055B2, “Betulinic acid derivatives” (Dabur Pharma Limited, priority 2005, dated 2011)
# How the values were obtained:
# [1] = system: Miapaca; assay: three day MTT cytotoxicity assay, Miapaca; assay type: cell-based, human; conditions: Miapaca, 72 hours, MTT; for IC50: Homo sapiens, MIA PaCa-2, read-out: IC50 for cell lines Miapaca
# Experimental: (§1) A number of compounds listed in Table-3 were tested for cytotoxicity against prostate, lung, laryngeal, pancreas, breast, colon and ovarian cancer, leukemia and lymphoma, human tumor cell lines. Briefly, a three day MTT cytotoxicity assay was performed, which is based on the principle of uptake of MTT (3-(4,5-dimethylthiazol-2-yl)-2,5-diphenyl tetrazolium bromide), a tetrazolium salt, by the metabolically active cells where it is metabolized by active mitochondria into a blue colored formazan product that is read spectrophotometrically. MIT was dissolved in phosphate buffered saline with a pH of 7.4 to obtain an MIT concentration of 5 mg/ml; the resulting mixture was filtered through a 0.22-micron filter to sterilize and remove a small amount of insoluble residue. For each type of tumor cell, 10,000 to 15,000 cells were seeded in a 96-well culture plate and incubated with the individual betulinic acid derivatives in a CO2 incubator for a total of 72 hours. Control cells not treated with the betulinic acid derivatives were similarly incubated. The assay was terminated by adding 100 μg (20 μl) of MIT to each well then incubating for additional one hour, and finally adding 50 μl of 10% SDS-0.01N HCl to each well to lyse the cells and dissolve formazan. After incubating for one hour, the plate was read spectrophotometrically at 540 nm and the percentage of cytotoxicity calculated using the following formula: Cytotoxicity percentage=100×[1−(X/R1)], where X=(absorbance of treated sample at 540 nm)−(absorbance of blank at 540 nm) R1=absorbance of control sample at 540 nm. The IC50 Values of the cytotoxicity defined as the concentration at which 50% of the cells are killed in vitro was calculated for each cell line treated with each of the betulinic acid derivatives.
# [2] = system: A549; assay: three day MTT cytotoxicity assay, A549; assay type: cell-based, human; conditions: A549, 72 hours, MTT; for IC50: Homo sapiens, read-out: IC50 for cell lines A549
# [3] = system: SW620; assay: three day MTT cytotoxicity assay, SW620; assay type: cell-based, human; conditions: for IC50: Homo sapiens, SW-620, SW620, 72 hours, read-out: IC50 for cell lines SW620; for IC50 for cell lines SW620: SW620, 72 hours
# Experimental: (§2) Briefly, a three day MTT cytotoxicity assay was performed, which is based on the principle of uptake of MTT (3-(4,5-dimethylthiazol-2-yl)-2,5-diphenyl tetrazolium bromide), a tetrazolium salt, by the metabolically active cells where it is metabolized by active mitochondria into a blue colored formazan product that is read spectrophotometrically. MIT was dissolved in phosphate buffered saline with a pH of 7.4 to obtain an MIT concentration of 5 mg/ml; the resulting mixture was filtered through a 0.22-micron filter to sterilize and remove a small amount of insoluble residue. For each type of tumor cell, 10,000 to 15,000 cells were seeded in a 96-well culture plate and incubated with the individual betulinic acid derivatives in a CO2 incubator for a total of 72 hours. Control cells not treated with the betulinic acid derivatives were similarly incubated. The assay was terminated by adding 100 μg (20 μl) of MIT to each well then incubating for additional one hour, and finally adding 50 μl of 10% SDS-0.01N HCl to each well to lyse the cells and dissolve formazan. After incubating for one hour, the plate was read spectrophotometrically at 540 nm and the percentage of cytotoxicity calculated using the following formula: Cytotoxicity percentage=100×[1−(X/R1)], where X=(absorbance of treated sample at 540 nm)−(absorbance of blank at 540 nm) R1=absorbance of control sample at 540 nm. The IC50 Values of the cytotoxicity defined as the concentration at which 50% of the cells are killed in vitro was calculated for each cell line treated with each of the betulinic acid derivatives.
# [4] = system: DU145; assay: three day MTT cytotoxicity assay, DU145; assay type: cell-based, human; conditions: for IC50: Homo sapiens, DU-145, DU145, 72 hours, read-out: IC50 for cell lines DU145; for IC50 for cell lines DU145: DU145, 72 hours
# Experimental: as §1
# [5] = system: PA1; assay: three day MTT cytotoxicity assay, PA1; assay type: cell-based, human; conditions: for IC50: Homo sapiens, PA-1, PA1, 72 hours, read-out: IC50 for cell lines PA1; for IC50 for cell lines PA1: PA1, 72 hours
# Experimental: as §2
# [6] = system: HBL100; assay: three day MTT cytotoxicity assay, HBL100; assay type: cell-based, human; conditions: HBL100, 72 hours, MTT; for IC50: Homo sapiens, HBL-100, read-out: IC50 for cell lines HBL100
# [7] = Pharmacokinetic study after intravenous injection; conditions: rat, plasma
# Experimental: (§3) Blood samples were taken at various times after administration and plasma was prepared and frozen at −20° C. until analysis. The plasma sample were analyzed by a suitable HPLC method using a C-18 column. The pH of water is adjusted to 3.0 with phosphoric acid. Start the gradient with 70% acetonitrile for 5 minutes and increase the concentration up to 100% within 25 minutes followed by hold at 100% for 10 minutes. It is thus possible to construct the curve showing the plasma concentration as a function of time and to determine different pharmacokinetic parameter of compound studied.
# [8] = system: normal cells; conditions: literature study; cited from earlier work
# [9] = system: NIH 3T3 cells; assay: NIH3T3 cytotoxicity test (72 h MTT assay); assay type: cell-based; conditions: NIH3T3, 72 hours
# How it was run: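 Mouse NIH 3T3 fibroblasts exposed to a concentration range of compound for 72 hours; viable cells measured by MTT and growth inhibition calculated against untreated cultures. IC50 expressed in μg/ml; safety index is the NIH 3T3 IC50 divided by tumour-cell IC50.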
# [10] = system: K562; assay: three day MTT cytotoxicity assay, K562; assay type: cell-based, human; conditions: K562, 72 hours, MTT
# [11] = rat, in vivo, iv, 10 mg/kg
# Experimental: as §3
# [12] = system: various cancer cell lines
# [13] = system: tumor; conditions: murine xenograft models; cited from earlier work
# [14] = in vivo; conditions: male, Wistar, rat, iv, 10 mg/kg
# Experimental: as §3
SMILES,IC50 [1] [µg/mL],IC50 [2] [µg/mL],IC50 [3] [µg/mL],IC50 [4] [µg/mL],IC50 [5] [µg/mL],IC50 [6] [µg/mL],IC50 for cell lines NIH3T3 [9] [µg/mL],IC50 for cell lines Miapaca [1] [µg/mL],IC50 for cell lines A549 [2] [µg/mL],IC50 for cell lines SW620 [3] [µg/mL],IC50 for cell lines DU145 [4] [µg/mL],IC50 for cell lines PA1 [5] [µg/mL],IC50 for cell lines K562 [10] [µg/mL],IC50 for cell lines HBL100 [6] [µg/mL],also measured
"C=C(C)[C@@H]1CC[C@]2(C(=O)O)CC[C@]3(C)[C@H](CC[C@@H]4[C@@]5(C)CC[C@H](O)C(C)(C)[C@@H]5CC[C@]43C)[C@@H]12 [Betulinic Acid (II), 33-hydroxy-lup-20(29)-en-28-oic acid, reference compound]",> 20,3.01,13.3,> 20,11.5,5.02,–,–,–,–,–,–,–,–,"AUC ([7]; male, Wistar, iv, 10 mg/kg): 13900 ng·h/mL; AUC(0-t) ([7]; male, Wistar, iv, 10 mg/kg): 10600 ng·h/mL; C0 ([7]; male, Wistar, iv, 10 mg/kg): 36 µg/mL; Vd ([7]; male, Wistar, iv, 10 mg/kg): 0.0416 L; half-life ([7]; male, Wistar, iv, 10 mg/kg): 0.265 h; Kel ([7]; 10 mg/kg intravenous): 2.60 h⁻¹; toxicity against normal cells [8]: minimal toxicity against normal cells"
"C#CCNC(=O)[C@]12CC[C@@H](C(=C)C)C1C1CCC3[C@@]4(C)Cc5c([nH]c6ccc(Cl)cc56)C(C)(C)C4CC[C@@]3(C)[C@]1(C)CC2 (stereo partly shown) [Compound 27, 28-N-Propargyl-5′-chloro-2,3-didehydroindolo[2′,′:2,3]betulinamide]",–,–,–,–,–,–,>20,>20,>20,>20,>20,>20,>20,>20,–
"C=C(C)[C@@H]1CC[C@]2(C(=O)O)CC[C@]3(C)C(CCC4[C@@]5(C)Cc6c([nH]c7cc(Cl)cc(Cl)c67)C(C)(C)C5CC[C@]43C)C12 (stereo partly shown) [Compound 31, 2,3-Didehydro-4′,6′-dichloroindolo[2′,3′:2,3]betulinic acid]",–,–,–,–,–,–,4.10,>20,5.5,>20,>20,>20,>20,>20,–
"C=C(C)[C@@H]1CC[C@]2(C(=O)NC3CC3)CC[C@]3(C)C(CCC4[C@@]5(C)Cc6c([nH]c7ccc(Cl)cc67)C(C)(C)C5CC[C@]43C)C12 (stereo partly shown) [Compound 34, 28-N-Cyclopropyl-5′-chloro-2,3-didehydroindolo[2′,′:2,3]betulinamide]",–,–,–,–,–,–,1.82,>20,>20,>20,>20,>20,>20,>20,–
CC(C)[C@@H]1CC[C@]2(C(=O)O)CC[C@]3(C)C(CCC4[C@@]5(C)CC/C(=N/Oc6ccc([N+](=O)[O-])cc6)C(C)(C)C5CC[C@]43C)C12 (stereo partly shown) [MJ1098-RS (III)],3.17,1.18,3.4,0.82,3.63,2.82,–,–,–,–,–,–,–,–,elimination (Kel) as compared to betulinic acid [11]: slower elimination; plasma concentrations as compared to betulinic acid (II) [11]: quite high and long lasting; systemic exposure (AUC0-∞) as compared to betulinic acid [11]: better systemic exposure; in vitro cytotoxicity / anticancer activity (in words) [12]: good in vitro cytotoxicity; tumor reduction [13]: shows tumor reduction; AUC [14]: 43600 ng·h/mL; C0 [14]: 101 µg/mL; Vd [14]: 0.0006 L; half-life [14]: 9.9 h
